Source: patent US20070185072A1, “Nitrogeneous polycyclic derivatives useful as chelators of metal ions and their applications” (priority 2003, published 2007)

Tested on: double transgenic mice over-expressing human APP (V717I) and human PS1 (A242E)
Assay: Amyloid plaque loading (thioflavin S staining of brain sections) in double transgenic mice model of Alzheimer's disease
Type: in vivo
Settings: vs control
Procedure: Mice over-expressing human APP with the London mutation (V717I) and human PS1 bearing the A242E mutation (APP and PS1 stand for amyloid protein precursor and preseniline 1, respectively) were used.
Three molecules were evaluated on these double transgenic mice (6-month old): 3-Propyl-Clip-Phen (molecule B in the histogram below), Cyclo-bi-Phen (molecule G) and Clioquinol (molecule W) (C stands for control, only DMSO diluted in water).
The molecules were initially diluted in DMSO in the presence of 2.6 equivalents of HCl and then in water and the animals were treated by i.p. injection with the two Phen derivatives at 5 mg/kg or at 10 mg/kg for Clioquinol, three times per week (monday, Wednesday and friday) during 9 consecutive weeks. 9 animals were treated for each drugs (control also included 9 animals).
This method is used to quantify the “old” plaques.

[1] = 5 mg/kg i.p. three times per week for 9 weeks

`Oc1c(I)cc(Cl)c2cccnc12` [Clioquinol, 5-chloro-7-iodo-8-hydroxyquinoline] was tested, and the plaque loading reduction (10 mg/kg i.p. three times per week for 9 weeks) was 28%.

`c1cnc2c(c1)ccc1cc(OCCCOc3cnc4c(ccc5cccnc54)c3)cnc12` [3-Propyl-Clip-Phen] was tested, and the plaque loading increase [1] was 16%.

For `c1nc2c3ccc4cc(cnc42)OCCCOc2cnc4c(ccc5cc(cnc54)OCCCOc1c3)c2` [Cyclo-bi-Phen], the plaque loading reduction [1] was 38%.
